Laboratory results from US20220248614A1, “METHOD FOR ELIMINATING PATHOGENS IN PLANT GROWING AND CORRESPONDING SYSTEM” (priority 2019, published 2022).
“Also recorded” adds a separate entry of the source.

Columns and labels:
cucumber powdery mildew = assay: Actual test, control of cucumber powdery mildew (April-May 2019); assay type: in vivo, Erysiphe sp.
Procedure: (§1) While the preliminary test was still underway, 20 cucumber seedlings were grown to the stage of a single leaf, the seedlings then being divided up into 5 boxes. The test groups were • 1. entirely untreated • 2. water spraying three times a week and watering of pot with ozone water for 3 and for 2 weeks before the conclusion of the test • 3. ozone spraying 3 three times a week • 4. ozone spraying 5 times a week at 7 a.m. and 4 p.m. • 5. ozone spraying 5 times a week at 7 a.m., 12 p.m. and 4 p.m.
The test area, in which mesh-bottomed pots were planted in peat with 4 pots in each box, was surrounded with the sick seedlings of the preliminary test, which were at a distance of approx. 60 cm from the test plants.

cucumber = assay: Tolerance of cucumber plants (leaves, roots) to ozone water; assay type: in vivo
Procedure: Mildewed cucumber leaves were collected from a garden adjacent to the research unit with which 6 outdoor cucumber seedlings were infected. After the verification of the manifestation of an infection, 18 new seedlings were grown up to the stage of the first plant leaf, at which point the plants were divided in onion boxes into 3 groups in the middle of each of which 2 ill plants were placed. The control plants were sprayed three times a week with water. The second test group was sprayed three times a day with ozone water (800 ppb) and the third test group was sprayed mornings and evenings. The sprayings were carried out with large droplets, which remained on the surface of the plant 2-4 hours. At night, the plants were covered with a monochrome plastic in order to maintain a high humidity. The sprayings took place over 6 weeks.
as §1

Fusarium oxysporum = Fusarium oxysporum test 1: fungal suspension in ozone water, plated on PDA; assay type: cell-based; settings: for culture colonies in the plate: 10 minutes
Procedure: A plateful of F. oxyxsporum fungus without agar was homogenized with 100 ml of water. 10 ml and 1 ml of the fungal suspension were added to 100 ml of sterile water and 100 ml of 800 ppb ozone water. After 10 minutes, the inoculums from each treatment were placed in 3 PDA plates.

[1] = system: Grey mould (Botrytis cinerea); assay: Grey mould test 1: spores rinsed from cabbage in ozone water, plated on PDA; assay type: cell-based; settings: taken from wet cabbage / grown at very high humidity
Procedure: Grey mould spores rinsed from cabbage were homogenized in approximately 200 ml of water. 10 ml and 1 ml of this fungal suspension were added to 100 ml of water and 100 ml of ozone water (800 ppb). After 10 and 60 minutes, specimens from each treatment were placed into 3 PDA plates.

[2] = system: Grey mould (Botrytis cinerea); assay: Grey mould test 2: almost dry old fungal growth rinsed into ozone water; assay type: cell-based
Procedure: A petri dish, (a CMA plate, in which cabbage discs stimulate the formation of conidia), comprising the almost dry old fungal growth and the endophytic bacteria from the cabbage therein), grey mould spores were rinsed into 100 ml of water. 1 and 10 ml of this water were pipetted into 100 ml of water and 100 ml of ozone water. 0.5 ml of each of these water mixtures was pipetted into 3 petri dishes in order to determine the vitality of the grey mould.

Pythium ultimum = Pythium ultimum test 1: fungal culture soaked with ozone water; assay type: cell-based
Procedure: In a first dish, a fungal culture was soaked for 30 minutes with sterile water when the Pythium fungus had grown to a distance of approx. 2 cm away from the small piece of inoculating agar at the rim of the dish, which was removed with a large cork borer before the water treatment. The fungus grew to fill the dish within 16 hours during the water treatment. In a second dish, an identical treatment with ozone water (800 ppb) was carried out. A thicker fungal mycelium was visible in the Pythium culture around the site of inoculation, from which the fungus only had time to grow 2 cm before the ozone treatment. The ozone destroyed the youngest tips of the hyphae of the fungus and the hyphae that had grown apart from the agar, but had no effect on hyphae that had already grown partially into the agar.

grey mould = assay: Grey mould test series on surfaces (wet versus dried fungus); assay type: cell-based, Botrytis cinerea; settings: ozone 2500 ppb in the air; grey mould washed from rotting cabbage, sprayed on cabbage, plastic, glass, redcurrant branch
Excerpt: Grey mould turns out to be surprising against ozone. […] When test set-ups yielded the same result the following year, in which grey mould spores and the associated mycelium fragments washed from the surface of moist, rotting cabbage survived on a plastic surface in an ozone spray and in a concentrated ozone solution, it was completely clear that the surfaces of the mycelium and spores of grey mould are completely resistant to ozone. […] In nature, grey mould survives until the following year on the surfaces of rotten plants such as berries and succulent leaves, where they form conidia in conidiophores in moist conditions. In wet conditions, the spores hardly spread with the wind; however, once dried by the sun, the spores of the growth break free to be carried a distance of at least 50 metres by the wind if the wind speed exceeds 2 m/s. Dried mycelium and conidiophores are readily identifiable under a microscope by their structure compared with completely turgid growths.

powdery mildew = assay: Control of powdery mildew infection by gaseous ozone or ozone solution; assay type: in vivo; settings: ozone in gaseous form, constant exposure
Procedure: The spores of powdery mildew have an exceptionally high moisture content compared to the spores of other fungal diseases, which is why merely a very high air humidity suffices for a spore infection, yet the conidium is destroyed quickly when engulfed by a water droplet. The spores of the fungus spread during the day and make the plant ill at night. Depending on the species of the powdery mildew, the infection stage takes 6-12 hours. […] Using this knowledge, it is possible to construct technical applications for implementation in greenhouses as well as outdoors for the control of powdery mildew disease infections. Based on this solution, many other plant pests which spread first to the surfaces of the plants as dry spores that have acclimated to the shining of the sun during their evolution (for example grey mould) can also be controlled.

crops = settings: 80-100 ppb in the air; cited from earlier work

O=[O+][O-] [ozone]
sensitivity of spores (conidia) of powdery mildew (cucumber powdery mildew; in vivo): extremely sensitive
survival of powdery mildew mycelium growing on the surface of the plant (cucumber powdery mildew; ozone concentration of the spraying 340 ppb): survives
state of roots compared with the untreated test group (cucumber; actual test): undamaged
damage to the leaves of the plants (cucumber; actual test, ozone sprayings, any stage): did not damage the leaves
impact on development of fresh weight (cucumber; actual test, watering of the roots with ozone water): did not have an impact
damage to the root system of cucumber or weakening of the plant (cucumber; approximately 800 ppb in the water, stem bottoms watered twice a week, evaluated a week after last treatment, preliminary tests): did not cause any damage
culture colonies in the plate (Fusarium oxysporum; 1 ml of inoculum in 100 ml of 800 ppb ozone water): 1-3 colonies
culture colonies in the plate (Fusarium oxysporum; 10 ml of inoculum in 100 ml of 800 ppb ozone water): 8-17 colonies
sensitivity of spores (conidia) and mycelium of Fusarium fungus (Fusarium oxysporum; in a solution and in sprays on surfaces of dry materials): completely sensitive
sensitivity of grey mould mycelium and spores grown wet [1]: ozone-resistant; also recorded: completely tolerant
sensitivity of dried grey mould mycelium and spores [2]: sensitive
sensitivity of Pythium fungus (mycelium, zoospores) (Pythium ultimum): sensitive
killing of spores and mycelium of grey mould (grey mould): not able to kill off
effect on powdery mildew infection (powdery mildew): satisfactory effect
effect of constant exposure on leaves (crops): causes chlorosis in leaves
